Structures are written as SMILES.

The values that follow come from ChEMBL document CHEMBL1151004, “The synthesis and structure activity relationships of enantiomerically pure hydroxylated oxotremorine derivatives” (Bioorg Med Chem Lett, 1992).

Assay [1] deals with Muscarinic acetylcholine receptor. In words: In vitro ability to displace [3H]quinuclidinyl benzilate [3H]QNB) from rat cortical Muscarinic acetylcholine receptor in competition assay. The class given is protein assay.
Assay [2] has the same target. Put plainly: In vitro ability to displace 3H-cis-methyltrimethylammoniummethyl-1,3-dioxolane [3H]CD) from rat cortical Muscarinic acetylcholine receptor in competition assay. The class given is protein assay.
Assay [3] in a line: Compound was evaluated for ratio of 3H-QNB, [3H]CD.

As to `O=C1[C@H](O)CCN1CC#CCN1CCCC1`, the figures for the Ki in assay [1] and in assay [2] were 2.1 µM and 0.12 µM, respectively. Further, the Ratio in assay [3] turned out to be 17.

For `C[N+](C)(C)CCOC(N)=O`, in assay [3], the Ratio turned out to be 2000.

On to `O=C1CCCN1CC#CCN1CC[C@H](O)C1`, for which the Ki was determined as 1.2 µM in assay [1] and 0.61 µM in assay [2]. Besides, the Ratio in assay [3] is 2.

For `O=C1C[C@H](O)CN1CC#CCN1CCCC1`, the Ki in assay [1] is 7.5 µM; in assay [2] it was 8.56 µM. In addition, the Ratio in assay [3] was determined as 0.9.

On to `O=C1CCCN1CC#CCN1CC[C@@H](O)C1`, for which the inhibitory constant (Ki) turned out to be 1.8 µM in assay [1] and 2.38 µM in assay [2]. Further, the Ratio in assay [3] was determined as 0.7.

On to `O=C1[C@@H](O)CCN1CC#CCN1CCCC1`, for which the Ki in assay [1] was 1.4 µM; in assay [2], 0.009 µM. In addition, the Ratio in assay [3] worked out at 150.

In the case of `O=C1C[C@@H](O)CN1CC#CCN1CCCC1`, the inhibitory constant (Ki) was 3 µM in assay [1] and 0.078 µM in assay [2]. For the same molecule, the Ratio in assay [3] was determined as 38.

For the molecule `O=C1CCCN1CC#CCN1CCCC1`, the Ratio in assay [3] worked out at 120.
